Results published in patent US12570655B2, “Cysteine covalent modifiers of AKT1 and uses thereof” (Terremoto Biosciences, Inc., priority 2023, dated 2026).
Read-outs that look alike come from different tables or passages of the source.

Tests used:
Type in all cases: cell-based
[1] = molecular target: T1, AKT2 (Homo sapiens, UniProt P31751); test: Live cell AKT2 target engagement by NanoBRET competitive probe displacement; details: HEK293 cells transfected with kinase-NanoLuciferase fusion, 2 h at 37° C.
T1 construct: expressed in transfected cells; host or cells: HEK293
T1 sequence (P31751 whole entry, the tested form may be a part): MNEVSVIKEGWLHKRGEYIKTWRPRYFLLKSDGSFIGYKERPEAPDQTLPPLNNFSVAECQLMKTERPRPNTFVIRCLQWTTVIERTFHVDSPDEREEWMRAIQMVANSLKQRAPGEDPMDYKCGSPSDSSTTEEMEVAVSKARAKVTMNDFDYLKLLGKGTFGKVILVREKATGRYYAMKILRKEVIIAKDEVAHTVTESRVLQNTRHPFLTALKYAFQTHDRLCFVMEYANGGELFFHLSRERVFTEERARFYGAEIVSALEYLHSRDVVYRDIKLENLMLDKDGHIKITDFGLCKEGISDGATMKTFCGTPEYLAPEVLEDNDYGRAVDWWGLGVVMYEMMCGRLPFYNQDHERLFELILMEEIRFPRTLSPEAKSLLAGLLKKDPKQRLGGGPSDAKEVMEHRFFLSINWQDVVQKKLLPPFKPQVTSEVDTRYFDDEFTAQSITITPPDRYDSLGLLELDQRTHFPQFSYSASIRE
Outline: (§1)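 NanoLuc-kinase fusions, HEK293, transfected overnight; compound serial dilution + ATP-competitive fluorescent tracer at ~EC50; 2 h, 37 °C. Read 460/600 nm with extracellular NanoLuc inhibitor; BRET = E600/E460; IC50 by Hill fit.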

[2] = molecular target: T2, AKT1 WT (Homo sapiens, UniProt P31749); test: Live cell AKT1 WT target engagement by NanoBRET competitive probe displacement; details: HEK293 cells transfected with kinase-NanoLuciferase fusion, 2 h at 37° C.
T2 construct: expressed in transfected cells; host or cells: HEK293
T2 sequence (P31749 whole entry, the tested form may be a part): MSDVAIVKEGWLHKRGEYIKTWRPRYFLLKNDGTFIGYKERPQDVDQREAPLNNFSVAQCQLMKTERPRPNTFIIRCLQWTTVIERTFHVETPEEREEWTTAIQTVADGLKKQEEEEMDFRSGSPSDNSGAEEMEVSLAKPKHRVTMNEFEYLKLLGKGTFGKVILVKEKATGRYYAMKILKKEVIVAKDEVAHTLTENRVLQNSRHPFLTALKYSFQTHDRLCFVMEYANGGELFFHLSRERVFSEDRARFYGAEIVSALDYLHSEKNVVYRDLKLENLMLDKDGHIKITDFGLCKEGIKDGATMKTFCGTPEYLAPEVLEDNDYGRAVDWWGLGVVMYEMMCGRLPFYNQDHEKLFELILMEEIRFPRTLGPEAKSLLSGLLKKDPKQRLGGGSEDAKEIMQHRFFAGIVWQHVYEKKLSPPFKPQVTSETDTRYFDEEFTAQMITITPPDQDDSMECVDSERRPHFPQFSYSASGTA
Outline: as §1

[3] = tested on: LAPC4 prostate cancer cells; test: Antiproliferative effects in LAPC4 cells (CellTiter Glo); details: LAPC4 cells (AKT1 E17K allele), read-out: LAPC4 proliferation IC50
Outline: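 Luminescent ATP read-out (CellTiter Glo) after 72 h compound exposure; 1,000 cells/well in IMDM + 12% FBS + 1% P/S. IC50 by Hill equation fit of luminescence vs. log(inhibitor).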

[4] = molecular target: T3, AKT1 E17K (Homo sapiens, UniProt P31749, E17K); test: Live cell AKT1 E17K target engagement by NanoBRET competitive probe displacement; details: HEK293 cells transfected with kinase-NanoLuciferase fusion, 2 h at 37° C.
T3 construct: expressed in transfected cells; host or cells: HEK293
T3 sequence (P31749 whole entry E17K, the tested form may be a part): as the sequence (P31749 whole entry, the tested form may be a part) above, with E17K counted along it
Outline: as §1

IC50 [1] [nM] | IC50 [2] [nM] | IC50 ([3]; Homo sapiens, LAPC4, 72 h) [nM] | IC50 [4] [nM] | IC50 ([3]; 72 h) [nM] | Compound
56.7 | 301 | 217 | 28.6 |  | C=CC(=O)N1CC2CC1CCC2N[C@H]1CCc2cc(-n3c(-c4cccnc4N)nc4ccc(-n5cccn5)nc43)ccc21 (stereo partly drawn) [Example 294, 1-(2-(((S)-5-(2-(2-aminopyridin-3-yl)-5-(1H-pyrazol-1-yl)-3H-imidazo[4,5-b]pyridin-3-yl)-2,3-dihydro-1H-inden-1-yl)amino)-6-azabicyclo[3.2.1]octan-6-yl)prop-2-en-1-one]
47 | 9.71 |  | 13.4 | 16.3 | C=CC(=O)N1CC2CC[C@H]1CC2N[C@H]1CCc2cc(-n3c(-c4cccnc4N)nc4ccc(-n5cccn5)nc43)ccc21 (single isomer, unassigned) [Example 133, 1-[(1S,4S,5*)-5-{[(1S)-5-[2-(2-aminopyridin-3-yl)-5-(pyrazol-1-yl)imidazo[4,5-b]pyridin-3-yl]-2,3-dihydro-1H-inden-1-yl]amino}-2-azabicyclo[2.2.2]octan-2-yl]prop-2-en-1-one]
80.8 | 254 | 253 | 15.4 |  | C=CC(=O)N1CCC(N[C@H]2CCc3cc(-n4c(-c5cccnc5N)nc5ccc(-n6ccc(C(C)C)n6)nc54)ccc32)CC1 [Example 281, 1-(4-{[(1S)-5-[2-(2-aminopyridin-3-yl)-5-(3-isopropylpyrazol-1-yl)imidazo[4,5-b]pyridin-3-yl]-2,3-dihydro-1H-inden-1-yl]amino}piperidin-1-yl)prop-2-en-1-one]
265 | 48.1 | 948 | 94 |  | C=CC(=O)N1CCCc2cccc(C(=O)N[C@H]3CCc4cc(-n5c(-c6cccnc6N)nc6ccc(-n7cccn7)nc65)ccc43)c21 [Example 40, N-[(1S)-5-[2-(2-aminopyridin-3-yl)-5-(pyrazol-1-yl)imidazo[4,5-b]pyridin-3-yl]-2,3-dihydro-1H-inden-1-yl]-1-(prop-2-enoyl)-3,4-dihydro-2H-quinoline-8-carboxamide]
352 | 2350 | 3960 | 140 |  | C=CC(=O)N1CCC(N[C@H]2CCc3cc(-n4c(-c5cccnc5N)nc5cc(C(F)(F)F)cnc54)ccc32)CC1 [Example 216, 1-(4-{[(1S)-5-[2-(2-aminopyridin-3-yl)-6-(trifluoromethyl)imidazo[4,5-b]pyridin-3-yl]-2,3-dihydro-1H-inden-1-yl]amino}piperidin-1-yl)prop-2-en-1-one]
942 | 32.1 |  | 339 | 422 | C=CC(=O)N1CCC(N[C@H]2CCc3cc(-n4c(-c5cccnc5N)nc5ccc(-n6cccn6)nc54)ccc32)C(OC)C1 (single isomer, unassigned) [Example 116, 1-((3*,4*)-4-(((S)-5-(2-(2-aminopyridin-3-yl)-5-(1H-pyrazol-1-yl)-3H-imidazo[4,5-b]pyridin-3-yl)-2,3-dihydro-1H-inden-1-yl)amino)-3-methoxypiperidin-1-yl)prop-2-en-1-one]
28 | 59.7 |  | 14.6 | 70 | C=CC(=O)N1CCC(N[C@H]2CC(F)c3cc(-n4c(-c5cccnc5N)nc5ccc(-n6cccn6)nc54)ccc32)CC1 (single isomer, unassigned) [Example 233, 1-(4-(((1S,3*)-5-(2-(2-aminopyridin-3-yl)-5-(1H-pyrazol-1-yl)-3H-imidazo[4,5-b]pyridin-3-yl)-3-fluoro-2,3-dihydro-1H-inden-1-yl)amino)piperidin-1-yl)prop-2-en-1-one]
2640 | 147 |  | 652 | 1170 | C=CC(=O)N1CCC(N[C@H]2CCc3cc(-n4c(-c5cccnc5N)nc5ccc(-n6cccn6)nc54)ccc32)CC12CCC2 (single isomer, unassigned) [Example 94, 1-((*)-8-(((S)-5-(2-(2-aminopyridin-3-yl)-5-(1H-pyrazol-1-yl)-3H-imidazo[4,5-b]pyridin-3-yl)-2,3-dihydro-1H-inden-1-yl)amino)-5-azaspiro[3.5]nonan-5-yl)prop-2-en-1-one]
1340 | 83.7 | 1040 | 288 |  | C=CC(=O)Nc1cc(O)ccc1C(=O)N[C@H]1CCc2cc(-n3c(-c4cccnc4N)nc4ccc(-n5cccn5)nc43)ccc21 [Example 70, N-[(1S)-5-[2-(2-aminopyridin-3-yl)-5-(pyrazol-1-yl)imidazo[4,5-b]pyridin-3-yl]-2,3-dihydro-1H-inden-1-yl]-4-hydroxy-2-(prop-2-enamido)benzamide]
583 | 56.2 | 506 | 192 |  | C=C(F)C(=O)N1CC2(CC(N[C@H]3CCc4cc(-n5c(-c6cccnc6N)nc6ccc(-n7cccn7)nc65)ccc43)C2)C1 [Example 83, (S)-1-(6-((5-(2-(2-aminopyridin-3-yl)-5-(1H-pyrazol-1-yl)-3H-imidazo[4,5-b]pyridin-3-yl)-2,3-dihydro-1H-inden-1-yl)amino)-2-azaspiro[3.3]heptan-2-yl)-2-fluoroprop-2-en-1-one]
968 | 3290 | 1520 | 150 |  | C=CC(=O)N1CCC(N[C@H]2CCc3cc(-n4c(-c5cccnc5N)nc5ccc(N6CCN(C)CC6)nc54)ccc32)CC1 [Example 259, 1-(4-{[(1S)-5-[2-(2-aminopyridin-3-yl)-5-(4-methylpiperazin-1-yl)imidazo[4,5-b]pyridin-3-yl]-2,3-dihydro-1H-inden-1-yl]amino}piperidin-1-yl)prop-2-en-1-one]
174 | 1220 |  | 74.8 | 398 | C=CC(=O)N1CCC(N[C@H]2CCc3cc(-n4c(-c5cccnc5N)nc5ccc(C6CC6)nc54)ccc32)C(C)C1 (single isomer, unassigned) [Example 231, 1-((3*,4*)-4-(((S)-5-(2-(2-aminopyridin-3-yl)-5-cyclopropyl-3H-imidazo[4,5-b]pyridin-3-yl)-2,3-dihydro-1H-inden-1-yl)amino)-3-methylpiperidin-1-yl)prop-2-en-1-one]
27.9 | 157 |  | 11.5 | 134 | C=CC(=O)N1CCC(N[C@@H]2c3ccc(-n4c(-c5cccnc5N)nc5ccc(-n6ccc(F)n6)nc54)cc3CC2F)C[C@@H]1C (single isomer, unassigned) [Example 273, 1-((2S,4*)-4-(((1R,2*)-5-(2-(2-aminopyridin-3-yl)-5-(3-fluoro-1H-pyrazol-1-yl)-3H-imidazo[4,5-b]pyridin-3-yl)-2-fluoro-2,3-dihydro-1H-inden-1-yl)amino)-2-methylpiperidin-1-yl)prop-2-en-1-one]
1200 | 93.2 |  | > 1000 | 7600 | C=CC(=O)N1CCCC(N[C@H]2CCc3cc(-n4c(-c5cccnc5N)nc5ccc(-n6cccn6)nc54)ccc32)CC1 (single isomer, unassigned) [Example 81, 1-((*)-4-(((S)-5-(2-(2-aminopyridin-3-yl)-5-(1H-pyrazol-1-yl)-3H-imidazo[4,5-b]pyridin-3-yl)-2,3-dihydro-1H-inden-1-yl)amino)azepan-1-yl)prop-2-en-1-one]
1420 | 85.3 | 1160 | 436 |  | C=CC(=O)N1CC2CCC(C1)C2N[C@H]1CCc2cc(-n3c(-c4cccnc4N)nc4ccc(-n5cccn5)nc43)ccc21 (stereo partly drawn) [Example 14, 1-(8-{[(1S)-5-[2-(2-aminopyridin-3-yl)-5-(pyrazol-1-yl)imidazo[4,5-b]pyridin-3-yl]-2,3-dihydro-1H-inden-1-yl]amino}-3-azabicyclo[3.2.1]octan-3-yl)prop-2-en-1-one]
393 | 30.9 | 736 | 42.4 |  | Nc1ncccc1-c1nc2ccc(-n3cccn3)nc2n1-c1ccc2c(c1)CC[C@@H]2NC1CCN(C(=O)[C@@H]2CO2)CC1 [Example 123, 3-{3-[(1S)-1-({1-[(2S)-oxirane-2-carbonyl]piperidin-4-yl}amino)-2,3-dihydro-1H-inden-5-yl]-5-(pyrazol-1-yl)imidazo[4,5-b]pyridin-2-yl}pyridin-2-amine]
43 | 10.6 | 44.8 | 8.62 |  | CN(CC#N)C(=O)N1CCC(N[C@H]2CCc3cc(-n4c(-c5cccnc5N)nc5ccc(-n6cccn6)nc54)ccc32)CC1 [Example 128, 4-{[(1S)-5-[2-(2-aminopyridin-3-yl)-5-(pyrazol-1-yl)imidazo[4,5-b]pyridin-3-yl]-2,3-dihydro-1H-inden-1-yl]amino-N}-(cyanomethyl)-N-methylpiperidine-1-carboxamide]
232 | 23.3 | 369 | 60.1 |  | C=CC(=O)N1CCC(N[C@@H]2c3ccc(-n4c(-c5cccnc5N)nc5ccc(-n6cccn6)nc54)cc3C[C@@H]2F)CC1 [Example 76, 1-(4-(((1R,2S)-5-(2-(2-aminopyridin-3-yl)-5-(1H-pyrazol-1-yl)-3H-imidazo[4,5-b]pyridin-3-yl)-2-fluoro-2,3-dihydro-1H-inden-1-yl)amino)piperidin-1-yl)prop-2-en-1-one]
